Laboratory results published in patent publication US10760110B2, “Antibiotic testing and screening system” (priority 2017, dated 2020).
Values after ≈ are worked out from the molar mass of the structure shown. Where two headings read alike, the source gives them in different places.

Tests used:
Settings in all cases: Klebsiella pneumoniae
[1] = system: K. pneumoniae NVT1001 and its ΔompK35/36 and/or ΔramR mutants; experiment: Etest MIC, OmpK35/36 loss and AcrAB-TolC overexpression (ΔramR) strains (Table 6); assay type: cell-based, Klebsiella pneumoniae
Method in brief: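 First, Etest determined each antibiotic's MIC, and intermediate results were adjusted upward to the next doubling dilution. Next, ceftazidime and cefotaxime were titrated in broth according to CLSI recommendations. Finally, results were interpreted with CLSI 2017 breakpoints, substituting CLSI 2015 for cephalothin and EUCAST 2017 for moxifloxacin.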

[2] = system: K. pneumoniae NVT1001 ΔramRΔompK35/36 mutant and its revertants; experiment: Etest MIC, ΔramRΔompK35/36 mutant and its revertants (Table 7); assay type: cell-based
[3] = system: K. pneumoniae NVT1001 strains with carbapenemase plasmids; experiment: Etest MIC of β-lactams, OmpK35/36 loss, ΔramR and/or carbapenemase (Table 9); assay type: cell-based, Klebsiella pneumoniae
Method in brief: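 Cloned resistance genes in pACYC177 or pACYC184 were electroporated into K. pneumoniae NVT1001. MICs were determined by Etest and rounded up to the next two-fold value. Ceftazidime and cefotaxime against the blaOXA-48 construct were also tested by CLSI broth microdilution, with breakpoints from CLSI 2017 (cephalothin CLSI 2015, moxifloxacin EUCAST 2017).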

`CO/N=C(\C(=O)N[C@@H]1C(=O)N2C(C(=O)O)=C(COC(N)=O)CS[C@H]12)c1ccco1` [Cefuroxime] showed an MIC ([1]; WT, NVT1001, read-out: MIC) of 4 µg/mL (≈ 9.43 µM), an MIC ([1]; Δ35, ΔompK35 mutant) of 8 µg/mL (≈ 18.9 µM) and an MIC ([1]; Δ35/36, ΔompK35/36 mutant) of 32 µg/mL (≈ 75.4 µM). For the same compound, the MIC ([1]; Δ36, ΔompK36 mutant) was 16 µg/mL (≈ 37.7 µM), the MIC ([1]; ΔramR mutant) was 32 µg/mL (≈ 75.4 µM) and the MIC ([1]; ΔramRΔ35, ΔramRΔompK35 mutant) was 64 µg/mL (≈ 151 µM). For the same compound, the MIC ([1]; ΔramRΔ35/36, ΔramRΔompK35/36 mutant) was 128 µg/mL (≈ 302 µM), the MIC ([1]; ΔramRΔ36, ΔramRΔompK36 mutant) was over 256 µg/mL and the MIC ([2]; ΔramRΔompK35/36::ompK35/36 revertant) was 32 µg/mL. For the same compound, the MIC ([2]; ΔramRΔompK35/36::ompK35 revertant) was over 256 µg/mL, the MIC ([2]; ΔramRΔompK35/36::ompK36 revertant) was 32 µg/mL and the MIC ([2]; ΔramRΔompK35/36::ramR revertant) was 32 µg/mL. It also gave an MIC ([2]; ΔramRΔompK35/36::ramR::ompK35/36 revertant) of 4 µg/mL, an MIC ([2]; ΔramRΔompK35/36::ramR::ompK35 revertant) of 16 µg/mL and an MIC ([2]; ΔramRΔompK35/36::ramR::ompK36 revertant) of 8 µg/mL. The MIC ([2]; ΔramRΔompK35/36 mutant) was 128 µg/mL, the MIC ([3]; IMP-8 on pACYC177, WT (NVT1001), read-out: MIC) was over 256 µg/mL and the MIC ([3]; IMP-8 on pACYC177, Δ35 (ΔompK35 mutant)) was over 256 µg/mL. For the same compound, the MIC ([3]; IMP-8 on pACYC177, Δ35/36 (ΔompK35/36 mutant)) was over 256 µg/mL, the MIC ([3]; IMP-8 on pACYC177, Δ36 (ΔompK36 mutant)) was over 256 µg/mL and the MIC ([3]; IMP-8 on pACYC177, ΔramR mutant) was over 256 µg/mL. It also gave an MIC ([3]; IMP-8 on pACYC177, ΔramRΔ35 (ΔramRΔompK35 mutant)) of over 256 µg/mL, an MIC ([3]; IMP-8 on pACYC177, ΔramRΔ35/36 (ΔramRΔompK35/36 mutant)) of over 256 µg/mL and an MIC ([3]; IMP-8 on pACYC177, ΔramRΔ36 (ΔramRΔompK36 mutant)) of over 256 µg/mL. It also gave an MIC ([3]; KPC-2 on pACYC177, WT (NVT1001), read-out: MIC) of over 256 µg/mL, an MIC ([3]; KPC-2 on pACYC177, Δ35 (ΔompK35 mutant)) of over 256 µg/mL and an MIC ([3]; KPC-2 on pACYC177, Δ35/36 (ΔompK35/36 mutant)) of over 256 µg/mL. The MIC ([3]; KPC-2 on pACYC177, Δ36 (ΔompK36 mutant)) was over 256 µg/mL, the MIC ([3]; KPC-2 on pACYC177, ΔramR mutant) was over 256 µg/mL and the MIC ([3]; KPC-2 on pACYC177, ΔramRΔ35 (ΔramRΔompK35 mutant)) was over 256 µg/mL. It also gave an MIC ([3]; KPC-2 on pACYC177, ΔramRΔ35/36 (ΔramRΔompK35/36 mutant)) of over 256 µg/mL, an MIC ([3]; KPC-2 on pACYC177, ΔramRΔ36 (ΔramRΔompK36 mutant)) of over 256 µg/mL and an MIC ([3]; KPC-3 on pACYC177, WT (NVT1001), read-out: MIC) of over 256 µg/mL. The MIC ([3]; KPC-3 on pACYC177, Δ35 (ΔompK35 mutant)) was over 256 µg/mL, the MIC ([3]; KPC-3 on pACYC177, Δ35/36 (ΔompK35/36 mutant)) was over 256 µg/mL and the MIC ([3]; KPC-3 on pACYC177, Δ36 (ΔompK36 mutant)) was over 256 µg/mL. The MIC ([3]; KPC-3 on pACYC177, ΔramR mutant) was over 256 µg/mL, the MIC ([3]; KPC-3 on pACYC177, ΔramRΔ35 (ΔramRΔompK35 mutant)) was over 256 µg/mL and the MIC ([3]; KPC-3 on pACYC177, ΔramRΔ35/36 (ΔramRΔompK35/36 mutant)) was over 256 µg/mL. The MIC ([3]; KPC-3 on pACYC177, ΔramRΔ36 (ΔramRΔompK36 mutant)) was over 256 µg/mL, the MIC ([3]; NDM-1 on pACYC177, WT (NVT1001), read-out: MIC) was over 256 µg/mL and the MIC ([3]; NDM-1 on pACYC177, Δ35 (ΔompK35 mutant)) was over 256 µg/mL. The MIC ([3]; NDM-1 on pACYC177, Δ35/36 (ΔompK35/36 mutant)) was over 256 µg/mL, the MIC ([3]; NDM-1 on pACYC177, Δ36 (ΔompK36 mutant)) was over 256 µg/mL and the MIC ([3]; NDM-1 on pACYC177, ΔramR mutant) was over 256 µg/mL. The MIC ([3]; NDM-1 on pACYC177, ΔramRΔ35 (ΔramRΔompK35 mutant)) was over 256 µg/mL, the MIC ([3]; NDM-1 on pACYC177, ΔramRΔ35/36 (ΔramRΔompK35/36 mutant)) was over 256 µg/mL and the MIC ([3]; NDM-1 on pACYC177, ΔramRΔ36 (ΔramRΔompK36 mutant)) was over 256 µg/mL. For the same compound, the MIC ([3]; OXA-48 on pACYC177, WT (NVT1001), read-out: MIC) was 8 µg/mL, the MIC ([3]; OXA-48 on pACYC177, Δ35 (ΔompK35 mutant)) was 16 µg/mL and the MIC ([3]; OXA-48 on pACYC177, Δ35/36 (ΔompK35/36 mutant)) was 128 µg/mL. It also gave an MIC ([3]; OXA-48 on pACYC177, Δ36 (ΔompK36 mutant)) of 32 µg/mL, an MIC ([3]; OXA-48 on pACYC177, ΔramR mutant) of 64 µg/mL and an MIC ([3]; OXA-48 on pACYC177, ΔramRΔ35 (ΔramRΔompK35 mutant)) of 64 µg/mL. The MIC ([3]; OXA-48 on pACYC177, ΔramRΔ35/36 (ΔramRΔompK35/36 mutant)) was over 256 µg/mL, the MIC ([3]; OXA-48 on pACYC177, ΔramRΔ36 (ΔramRΔompK36 mutant)) was over 256 µg/mL and the MIC ([3]; VIM-1 on pACYC177, WT (NVT1001), read-out: MIC) was over 256 µg/mL. The MIC ([3]; VIM-1 on pACYC177, Δ35 (ΔompK35 mutant)) was over 256 µg/mL, the MIC ([3]; VIM-1 on pACYC177, Δ35/36 (ΔompK35/36 mutant)) was over 256 µg/mL and the MIC ([3]; VIM-1 on pACYC177, Δ36 (ΔompK36 mutant)) was over 256 µg/mL. For the same compound, the MIC ([3]; VIM-1 on pACYC177, ΔramR mutant) was over 256 µg/mL, the MIC ([3]; VIM-1 on pACYC177, ΔramRΔ35 (ΔramRΔompK35 mutant)) was over 256 µg/mL and the MIC ([3]; VIM-1 on pACYC177, ΔramRΔ35/36 (ΔramRΔompK35/36 mutant)) was over 256 µg/mL. The MIC ([3]; VIM-1 on pACYC177, ΔramRΔ36 (ΔramRΔompK36 mutant)) was over 256 µg/mL, the MIC ([3]; no supplemental plasmid, WT (NVT1001), read-out: MIC) was 4 µg/mL and the MIC ([3]; no supplemental plasmid, Δ35 (ΔompK35 mutant)) was 8 µg/mL. For the same compound, the MIC ([3]; no supplemental plasmid, Δ35/36 (ΔompK35/36 mutant)) was 32 µg/mL, the MIC ([3]; no supplemental plasmid, Δ36 (ΔompK36 mutant)) was 16 µg/mL and the MIC ([3]; no supplemental plasmid, ΔramR mutant) was 32 µg/mL. The MIC ([3]; no supplemental plasmid, ΔramRΔ35 (ΔramRΔompK35 mutant)) was 64 µg/mL, the MIC ([3]; no supplemental plasmid, ΔramRΔ35/36 (ΔramRΔompK35/36 mutant)) was 128 µg/mL and the MIC ([3]; no supplemental plasmid, ΔramRΔ36 (ΔramRΔompK36 mutant)) was over 256 µg/mL.
